In patent US6355799B1, “Substituted benzene compounds, process for their preparation, and herbicidal and defoliant compositions containing them” (ISK Americas Incorporated, priority 1997, dated 2002):

Assays:
Assay type in all cases: in vivo
[1] = test system: redroot pigweed (Amaranthus retroflexus, AMARE); assay: Pre-emerge test, greenhouse herbicide activity screening; details: pre-emerge, 14 days after application, scale 0-100
Outline: (§1)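 Compounds in acetone were track-sprayed at 15-1000 g ai/ha (187 l/ha) on sandy loam pots: pre-emerge one day after seeding, post-emerge at 2-3 leaf stage with 0.25% v/v non-ionic surfactant. Phytotoxicity was rated 14 days later on a 0 (no damage) to 100 (complete death) scale.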

[2] = test system: barnyardgrass (Echinochloa crus-galli, ECHCG); assay: as above; details: pre-emerge, 14 days after application, scale 0-100
Outline: as §1

[3] = test system: green foxtail (Setaria viridis, SETVI); assay: as above; details: pre-emerge, 14 days after application, scale 0-100
Outline: as §1

[4] = test system: ivyleaf morningglory (Ipomoea hederacea, IPOHE); assay: as above; details: pre-emerge, 14 days after application, scale 0-100
Outline: as §1

[5] = test system: johnsongrass (Sorghum halepense, SORHA); assay: as above; details: pre-emerge, 14 days after application, scale 0-100
Outline: as §1

[6] = test system: lambsquarters (Chenopodium album, CHEAL); assay: as above; details: pre-emerge, 14 days after application, scale 0-100
Outline: as §1

[7] = test system: large crabgrass (Digitaria sanguinalis, DIGSA); assay: as above; details: pre-emerge, 14 days after application, scale 0-100
Outline: as §1

[8] = test system: sicklepod (Cassia obtusifolia, CASOB); assay: as above; details: pre-emerge, 14 days after application, scale 0-100
Outline: as §1

[9] = test system: velvetleaf (Abutilon theophrasti, ABUTH); assay: as above; details: pre-emerge, 14 days after application, scale 0-100
Outline: as §1

[10] = test system: field corn (Zea mays L., var. Dekalb 535, CORN); assay: Pre-emerge test, crop safety; details: pre-emerge, 14 days after application, scale 0-100
Outline: (§2)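 Fourteen days after spraying, crop and weed injury was graded visually from 0, no effect, to 100, every plant dead. Test substances were dissolved in acetone and applied at 15–1000 g ai/ha with a flat-fan nozzle. Application was either pre-emergence, one day after sowing, or post-emergence at the 2–3 leaf stage.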

[11] = test system: upland rice (Oryza sp., var. Tebonnet, RICE); assay: Pre-emerge test, crop safety; details: pre-emerge, 14 days after application, scale 0-100
Outline: as §2

[12] = test system: barnyardgrass (Echinochloa crus-galli, ECHCG); assay: Post-emerge test, greenhouse herbicide activity screening; details: post-emerge, 14 days after application, rating scale 0-100
Outline: (§3)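 Compounds in acetone were track-sprayed at 187 l/ha, 15–1000 g ai/ha, onto sandy loam pots. Pre-emerge seeds were sown one day before spraying, with surface watering afterwards. Post-emerge plants were at the 2–3 leaf stage and sprayed with 0.25% v/v non-ionic surfactant. Injury was rated 0–100 at 14 days.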

[13] = test system: green foxtail (Setaria viridis, SETVI); assay: as above; details: post-emerge, 14 days after application, rating scale 0-100
Outline: as §3

[14] = test system: ivyleaf morningglory (Ipomoea hederacea, IPOHE); assay: as above; details: post-emerge, 14 days after application, rating scale 0-100
Outline: as §3

[15] = test system: johnsongrass (Sorghum halepense, SORHA); assay: as above; details: post-emerge, 14 days after application, rating scale 0-100
Outline: as §3

[16] = test system: lambsquarters (Chenopodium album, CHEAL); assay: as above; details: post-emerge, 14 days after application, rating scale 0-100
Outline: as §3

[17] = test system: large crabgrass (Digitaria sanguinalis, DIGSA); assay: as above; details: post-emerge, 14 days after application, rating scale 0-100
Outline: as §3

[18] = test system: redroot pigweed (Amaranthus retroflexus, AMARE); assay: as above; details: post-emerge, 14 days after application, rating scale 0-100
Outline: as §3

[19] = test system: sicklepod (Cassia obtusifolia, CASOB); assay: as above; details: post-emerge, 14 days after application, rating scale 0-100
Outline: as §3

[20] = test system: velvetleaf (Abutilon theophrasti, ABUTH); assay: as above; details: post-emerge, 14 days after application, rating scale 0-100
Outline: as §3

[21] = test system: field corn (Zea mays L., var. Dekalb 535, CORN); assay: Post-emerge test, crop safety; details: post-emerge, 14 days after application, rating scale 0-100
Outline: as §1

[22] = test system: upland rice (Oryza sp., var. Tebonnet, RICE); assay: Post-emerge test, crop safety; details: post-emerge, 14 days after application, rating scale 0-100
Outline: as §1

## COc1c(Cl)cc(F)c(-n2c(=O)cc(C(F)(F)F)n(C)c2=O)c1NC(=O)c1cc2ccccc2cc1C [2-155]
[1]; 63 g ai/ha
  phytotoxicity rating AMARE: 100
[1]; 125 g ai/ha
  phytotoxicity rating AMARE: 100
[2]; 63 g ai/ha
  phytotoxicity rating ECHCG: 50
[2]; 125 g ai/ha
  phytotoxicity rating ECHCG: 70
[3]; 63 g ai/ha
  phytotoxicity rating SETVI: 60
[3]; 125 g ai/ha
  phytotoxicity rating SETVI: 95
[4]; 63 g ai/ha
  phytotoxicity rating IPOHE: 0
[4]; 125 g ai/ha
  phytotoxicity rating IPOHE: 40
[5]; 63 g ai/ha
  phytotoxicity rating SORHA: 30
[5]; 125 g ai/ha
  phytotoxicity rating SORHA: 70
[6]; 63 g ai/ha
  phytotoxicity rating CHEAL: 100
[6]; 125 g ai/ha
  phytotoxicity rating CHEAL: 100
[7]; 63 g ai/ha
  phytotoxicity rating DIGSA: 85
[7]; 125 g ai/ha
  phytotoxicity rating DIGSA: 100
[8]; 63 g ai/ha
  phytotoxicity rating CASOB: 0
[8]; 125 g ai/ha
  phytotoxicity rating CASOB: 30
[9]; 63 g ai/ha
  phytotoxicity rating ABUTH: 100
[9]; 125 g ai/ha
  phytotoxicity rating ABUTH: 100
[10]; 63 g ai/ha
  phytotoxicity rating CORN (crop damage): 0
[10]; 125 g ai/ha
  phytotoxicity rating CORN (crop damage): 15
[11]; 63 g ai/ha
  phytotoxicity rating RICE (crop damage): 30
[11]; 125 g ai/ha
  phytotoxicity rating RICE (crop damage): 60
[12]; 63 g ai/ha
  ECHCG phytotoxicity rating: 30
[12]; 125 g ai/ha
  ECHCG phytotoxicity rating: 60
[13]; 63 g ai/ha
  SETVI phytotoxicity rating: 50
[13]; 125 g ai/ha
  SETVI phytotoxicity rating: 70
[14]; 63 g ai/ha
  IPOHE phytotoxicity rating: 100
[14]; 125 g ai/ha
  IPOHE phytotoxicity rating: 100
[15]; 63 g ai/ha
  SORHA phytotoxicity rating: 30
[15]; 125 g ai/ha
  SORHA phytotoxicity rating: 50
[16]; 63 g ai/ha
  CHEAL phytotoxicity rating: 100
[16]; 125 g ai/ha
  CHEAL phytotoxicity rating: 100
[17]; 63 g ai/ha
  DIGSA phytotoxicity rating: 40
[17]; 125 g ai/ha
  DIGSA phytotoxicity rating: 50
[18]; 63 g ai/ha
  AMARE phytotoxicity rating: 100
[18]; 125 g ai/ha
  AMARE phytotoxicity rating: 100
[19]; 63 g ai/ha
  CASOB phytotoxicity rating: 100
[19]; 125 g ai/ha
  CASOB phytotoxicity rating: 100
[20]; 63 g ai/ha
  ABUTH phytotoxicity rating: 100
[20]; 125 g ai/ha
  ABUTH phytotoxicity rating: 100
[21]; 63 g ai/ha
  CORN phytotoxicity rating (crop damage): 70
[21]; 125 g ai/ha
  CORN phytotoxicity rating (crop damage): 90
[22]; 63 g ai/ha
  RICE phytotoxicity rating (crop damage): 25
[22]; 125 g ai/ha
  RICE phytotoxicity rating (crop damage): 80

## COc1c(Cl)cc(F)c(-n2c(=O)cc(C(F)(F)F)n(C)c2=O)c1NC(=O)CSC [2-168]
[1]; 63 g ai/ha
  phytotoxicity rating AMARE: 90
[1]; 250 g ai/ha
  phytotoxicity rating AMARE: 100
[2]; 63 g ai/ha
  phytotoxicity rating ECHCG: 0
[2]; 250 g ai/ha
  phytotoxicity rating ECHCG: 20
[3]; 63 g ai/ha
  phytotoxicity rating SETVI: 10
[3]; 250 g ai/ha
  phytotoxicity rating SETVI: 95
[4]; 63 g ai/ha
  phytotoxicity rating IPOHE: 40
[4]; 250 g ai/ha
  phytotoxicity rating IPOHE: 90
[5]; 63 g ai/ha
  phytotoxicity rating SORHA: 0
[5]; 250 g ai/ha
  phytotoxicity rating SORHA: 90
[6]; 63 g ai/ha
  phytotoxicity rating CHEAL: 100
[6]; 250 g ai/ha
  phytotoxicity rating CHEAL: 100
[7]; 63 g ai/ha
  phytotoxicity rating DIGSA: 0
[7]; 250 g ai/ha
  phytotoxicity rating DIGSA: 80
[8]; 63 g ai/ha
  phytotoxicity rating CASOB: 30
[8]; 250 g ai/ha
  phytotoxicity rating CASOB: 80
[9]; 63 g ai/ha
  phytotoxicity rating ABUTH: 60
[9]; 250 g ai/ha
  phytotoxicity rating ABUTH: 100
[10]; 63 g ai/ha
  phytotoxicity rating CORN (crop damage): 0
[11]; 63 g ai/ha
  phytotoxicity rating RICE (crop damage): 20
[11]; 250 g ai/ha
  phytotoxicity rating RICE (crop damage): 60
[12]; 63 g ai/ha
  ECHCG phytotoxicity rating: 0
[12]; 250 g ai/ha
  ECHCG phytotoxicity rating: 0
[13]; 63 g ai/ha
  SETVI phytotoxicity rating: 0
[13]; 250 g ai/ha
  SETVI phytotoxicity rating: 10
[14]; 63 g ai/ha
  IPOHE phytotoxicity rating: 60
[14]; 250 g ai/ha
  IPOHE phytotoxicity rating: 100
[15]; 63 g ai/ha
  SORHA phytotoxicity rating: 0
[15]; 250 g ai/ha
  SORHA phytotoxicity rating: 0
[16]; 63 g ai/ha
  CHEAL phytotoxicity rating: 30
[16]; 250 g ai/ha
  CHEAL phytotoxicity rating: 50
[17]; 63 g ai/ha
  DIGSA phytotoxicity rating: 0
[17]; 250 g ai/ha
  DIGSA phytotoxicity rating: 0
[18]; 63 g ai/ha
  AMARE phytotoxicity rating: 20
[18]; 250 g ai/ha
  AMARE phytotoxicity rating: 50
[19]; 63 g ai/ha
  CASOB phytotoxicity rating: 0
[19]; 250 g ai/ha
  CASOB phytotoxicity rating: 80
[20]; 63 g ai/ha
  ABUTH phytotoxicity rating: 60
[20]; 250 g ai/ha
  ABUTH phytotoxicity rating: 100
[21]; 63 g ai/ha
  CORN phytotoxicity rating (crop damage): 5
[21]; 250 g ai/ha
  CORN phytotoxicity rating (crop damage): 10
[22]; 63 g ai/ha
  RICE phytotoxicity rating (crop damage): 10
[22]; 250 g ai/ha
  RICE phytotoxicity rating (crop damage): 30
